Results as given in ChEMBL document CHEMBL1145727, “Improvement of biological activity and proteolytic stability of peptides by coupling with a cyclic peptide” (Bioorg Med Chem Lett, 2003).
One block for each compound: values may come before it. Bridge positions count the residues as written; N and C are the ends. Peptide text beside a SMILES is read from it.

Experiments:
Integrin alpha-5/beta-1 = Integrin alpha-5/beta-1 (Homo sapiens, UniProt P05556+P08648); experiment: Inhibition of mouse melanoma B16-F10 cell adhesion to fibronectin; assay type: functional, cell-based
Chain of Integrin alpha-5/beta-1 (P05556 21-798 limits assumed): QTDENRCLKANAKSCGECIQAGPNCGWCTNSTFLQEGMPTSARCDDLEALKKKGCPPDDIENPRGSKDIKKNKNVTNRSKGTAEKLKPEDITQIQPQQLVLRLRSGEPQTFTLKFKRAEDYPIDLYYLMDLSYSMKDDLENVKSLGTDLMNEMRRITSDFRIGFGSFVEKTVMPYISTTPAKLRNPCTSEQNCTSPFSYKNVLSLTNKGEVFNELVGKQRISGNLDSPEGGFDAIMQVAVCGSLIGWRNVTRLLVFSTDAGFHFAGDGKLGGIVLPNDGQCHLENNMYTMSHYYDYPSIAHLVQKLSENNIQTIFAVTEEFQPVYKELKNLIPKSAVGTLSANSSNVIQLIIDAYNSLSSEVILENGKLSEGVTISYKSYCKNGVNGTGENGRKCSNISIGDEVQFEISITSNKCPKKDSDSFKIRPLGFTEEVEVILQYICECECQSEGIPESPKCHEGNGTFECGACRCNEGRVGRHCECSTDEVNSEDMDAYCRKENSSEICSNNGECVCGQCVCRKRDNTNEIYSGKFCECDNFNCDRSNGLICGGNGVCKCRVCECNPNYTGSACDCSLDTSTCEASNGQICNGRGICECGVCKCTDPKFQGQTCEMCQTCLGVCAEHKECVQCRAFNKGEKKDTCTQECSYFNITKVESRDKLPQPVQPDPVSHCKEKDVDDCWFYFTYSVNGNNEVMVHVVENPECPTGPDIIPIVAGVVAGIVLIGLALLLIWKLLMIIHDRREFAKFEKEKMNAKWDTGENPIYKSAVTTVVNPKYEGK
Chain of Integrin alpha-5/beta-1 (P08648 42-894 limits assumed): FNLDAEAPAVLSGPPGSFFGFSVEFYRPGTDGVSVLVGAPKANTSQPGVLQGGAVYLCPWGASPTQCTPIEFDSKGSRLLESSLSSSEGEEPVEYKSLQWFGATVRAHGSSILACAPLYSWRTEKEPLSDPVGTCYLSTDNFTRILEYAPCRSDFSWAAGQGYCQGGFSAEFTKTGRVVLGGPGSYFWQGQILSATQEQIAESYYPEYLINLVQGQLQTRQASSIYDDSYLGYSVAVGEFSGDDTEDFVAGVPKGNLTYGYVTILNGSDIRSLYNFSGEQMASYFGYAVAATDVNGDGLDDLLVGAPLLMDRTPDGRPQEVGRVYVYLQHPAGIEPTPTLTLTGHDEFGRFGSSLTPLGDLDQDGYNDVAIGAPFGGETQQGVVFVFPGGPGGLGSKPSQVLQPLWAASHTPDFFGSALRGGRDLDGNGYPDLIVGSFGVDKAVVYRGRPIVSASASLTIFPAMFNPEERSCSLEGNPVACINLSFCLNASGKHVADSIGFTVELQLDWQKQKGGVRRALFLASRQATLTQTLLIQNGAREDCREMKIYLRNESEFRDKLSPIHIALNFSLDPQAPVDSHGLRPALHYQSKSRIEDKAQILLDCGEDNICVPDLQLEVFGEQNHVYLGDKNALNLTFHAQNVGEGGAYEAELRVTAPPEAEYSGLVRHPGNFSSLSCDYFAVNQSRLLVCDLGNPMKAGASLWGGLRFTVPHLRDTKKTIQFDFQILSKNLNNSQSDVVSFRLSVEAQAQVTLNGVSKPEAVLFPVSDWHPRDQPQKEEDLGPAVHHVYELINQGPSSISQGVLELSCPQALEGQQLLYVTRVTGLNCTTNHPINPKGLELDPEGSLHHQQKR
Chain of Integrin alpha-5/beta-1 (P08648 895-1049 limits assumed): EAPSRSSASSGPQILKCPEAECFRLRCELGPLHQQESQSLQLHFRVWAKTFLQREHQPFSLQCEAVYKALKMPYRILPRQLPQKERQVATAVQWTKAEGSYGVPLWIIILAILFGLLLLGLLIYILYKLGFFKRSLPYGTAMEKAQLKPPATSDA

[1] = target: T1, Integrin alpha-IIb/beta-3 (Homo sapiens) (UniProt P05106+P08514); experiment: Inhibition of platelet aggregation at 0.1 mM in platelet-rich plasma (PRP) of citreated rabbit heart blood; assay type: functional; conditions: Oryctolagus cuniculus, target entry is the homologue from another species
[2] = target: T1, Integrin alpha-IIb/beta-3 (Homo sapiens); experiment: Inhibition of platelet aggregation at 1 mM in platelet-rich plasma (PRP) of citreated rabbit heart blood; assay type: functional; conditions: Oryctolagus cuniculus, target entry is the homologue from another species
[3] = target: T1, Integrin alpha-IIb/beta-3 (Homo sapiens); experiment: Inhibition of platelet aggregation at 0.3 mM in platelet-rich plasma (PRP) of citreated rabbit heart blood; assay type: functional; conditions: Oryctolagus cuniculus, target entry is the homologue from another species
[4] = target: Protein farnesyltransferase (Homo sapiens, UniProt P49354+P49356); experiment: Inhibition of Farnesyltransferase by Scintillation Proximity Assay; assay type: protein-complex assay
[5] = target: Protein farnesyltransferase (Bos taurus, UniProt P29702+P49355); experiment: In vitro inhibition of farnesylation of v-Ki-Ras by bovine farnesyl transferase; assay type: protein-complex assay

Compound: CC(C)[C@H](NC(=O)[C@H]1CC(=O)NCC(=O)N[C@H](CC(N)=O)C(=O)N[C@@H](Cc2c[nH]c3ccccc23)C(=O)N[C@H](Cc2c[nH]cn2)C(=O)NCC(=O)N[C@H]([C@@H](C)O)C(=O)N[C@@H](C)C(=O)N2CCC[C@@H]2C(=O)N1)C(=O)N[C@H](C(=O)NCC(=O)N[C@@H](CCCN=C(N)N)C(=O)NCC(=O)N[C@@H](CC(=O)O)C(=O)N[C@@H](CO)C(=O)N1CCC[C@@H]1C(=O)N[C@@H](C)C(=O)O)[C@@H](C)O
Inhibitory ratio [1]: 28.3% | Inhibitory ratio [2]: 92.1% | Inhibitory ratio [3]: 78.4%

Compound: CC(C)[C@H](NC(=O)[C@@H]1CC(=O)NCC(=O)N[C@@H](CC(N)=O)C(=O)N[C@@H](Cc2c[nH]c3ccccc23)C(=O)N[C@@H](Cc2cnc[nH]2)C(=O)NCC(=O)N[C@@H]([C@@H](C)O)C(=O)N[C@@H](C)C(=O)N2CCC[C@H]2C(=O)N1)C(=O)N[C@H](C(=O)NCC(=O)N[C@@H](CCCNC(=N)N)C(=O)NCC(=O)N[C@@H](CC(=O)O)C(=O)N[C@@H](CO)C(=O)N1CCC[C@H]1C(=O)N[C@@H](C)C(=O)O)[C@@H](C)O
IC50 (Integrin alpha-5/beta-1): 290 µM

Compound: CSCC[C@H](NC(=O)[C@@H](NC(=O)[C@@H](NC(=O)[C@H](CS)NC(=O)[C@@H]1CCCN1C(=O)[C@H](CC(C)C)NC(=O)CNC(=O)[C@H](CCSC)NC(=O)[C@@H](N)CO)C(C)C)C(C)C)C(=O)O
IC50 [4]: 1.2 µM

Compound: H-VTGRGDSPA-OH [listing 2 of 2 here]
Inhibitory ratio [2]: 61.2% | Inhibitory ratio [3]: 20.3%

More lines, now with the values ahead:

IC50 (Integrin alpha-5/beta-1; b16-f10): 800 µM
Compound: CC(C)[C@H](NC(=O)[C@H](C)NC(=O)[C@H](Cc1ccc(O)cc1)NC(=O)[C@@H](NC(=O)[C@@H]1CC(=O)NCC(=O)N[C@@H](CC(N)=O)C(=O)N[C@@H](Cc2c[nH]c3ccccc23)C(=O)N[C@@H](Cc2cnc[nH]2)C(=O)NCC(=O)N[C@@H]([C@@H](C)O)C(=O)N[C@@H](C)C(=O)N2CCC[C@H]2C(=O)N1)C(C)C)C(=O)N[C@H](C(=O)NCC(=O)N[C@@H](CCCNC(=N)N)C(=O)NCC(=O)N[C@@H](CC(=O)O)C(=O)N[C@@H](CO)C(=O)N1CCC[C@H]1C(=O)N[C@@H](C)C(N)=O)[C@@H](C)O (GNWHGTAPDVYAVTGRGDSPA-NH2; lactam N-9)

IC50 (Integrin alpha-5/beta-1): 1100 µM
Compound: H-VTGRGDSPA-OH [listing 1 of 2 here]

IC50 (Integrin alpha-5/beta-1): 1000 µM
Compound: H-VYAVTGRGDSPA-NH2

IC50 [4]: 0.42 µM | IC50 [5]: 560 µM
Compound: CSCC[C@H](NC(=O)[C@@H](NC(=O)[C@@H](NC(=O)[C@H](CS)NC(=O)[C@H]1CCCN1C(=O)[C@H](CC(C)C)NC(=O)CNC(=O)[C@H](CCSC)NC(=O)[C@H](CO)N[C@H]1CC(=O)NCC(=O)N[C@H](CC(N)=O)C(=O)N[C@@H](Cc2c[nH]c3ccccc23)C(=O)N[C@H](Cc2c[nH]cn2)C(=O)NCC(=O)N[C@H]([C@@H](C)O)C(=O)N[C@@H](C)C(=O)N2CCC[C@@H]2C(=O)N1)C(C)C)C(C)C)C(=O)O
